This test concerns the target Regulator of G-protein signaling 4 (Homo sapiens, UniProt P49798). The test is described as follows: RGS4-Galphao binding modulators, SAR follow-up, biochemical, multiplexed bead flow cytometry, SAR compounds (AID 2295). In general terms: Flow cytometry measures light scatter and fluorescence of single cells or particles in a stream.

pEC50: −log10 of the molar value.

Regulator of G-protein signaling 4, sequence (P49798 whole entry): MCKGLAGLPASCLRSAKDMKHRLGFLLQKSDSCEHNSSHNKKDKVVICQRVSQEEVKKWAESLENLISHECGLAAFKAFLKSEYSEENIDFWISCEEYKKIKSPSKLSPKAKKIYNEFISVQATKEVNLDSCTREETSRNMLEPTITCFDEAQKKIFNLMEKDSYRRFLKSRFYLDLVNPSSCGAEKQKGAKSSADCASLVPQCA

Consider `CN1CCN(C2=C(Cl)C(=O)C(c3cnc(N4CCCCC4)s3)=C(Cl)C2=O)CC1`, for which the pEC50 (as a rule, the negative decadic logarithm of the EC50, by convention in mol/L) is 6.47. On the same count and under the same terms, as for `NS(=O)(=O)c1ccc(N=NCc2ccc(O)c(O)c2O)c([N+](=O)[O-])c1` [4-[[(E)-(2,3-dihydroxy-4-oxo-1-cyclohexa-2,5-dienylidene)methyl]hydrazo]-3-nitrobenzenesulfonamide], the figure is 5.92; as for `CCN(CC)S(=O)(=O)c1cccc(-c2n[nH]c(=S)n2N=Cc2ccc(C(=O)OC)cc2)c1` [4-[(E)-[3-[3-(diethylsulfamoyl)phenyl]-5-thioxo-1H-1,2,4-triazol-4-yl]iminomethyl]benzoic acid methyl ester], 5.02. On the same count and under the same terms, the result for `Cc1cc(C)c2c(n1)CCN(CC(=O)N1CCN(c3ccccc3)CC1)C2=O` [2,4-dimethyl-6-[2-oxidanylidene-2-(4-phenylpiperazin-1-yl)ethyl]-7,8-dihydro-1,6-naphthyridin-5-one] reads under 4.52; that for `CCC(=O)NC(c1ccc(C)cc1)c1cc([N+](=O)[O-])c2cccnc2c1O` (configuration not stated) [MLS000553854], 5.18; that for `Cc1cccc(N2CCN(C(=O)COc3nsc4nc(C)cc(C)c34)CC2C)c1` (configuration not stated), 5.16. The compound `CCOc1ccccc1-c1c2cc(O)c(=O)cc-2oc2cc(O)c(O)cc12` [MLS000578271] showed a pEC50 (inactive by the depositor's call) of 5.44. Compound `COC(=O)CCC(=O)Nc1sc(C)c(C)c1C(N)=O` [4-[(3-carbamoyl-4,5-dimethyl-2-thienyl)amino]-4-keto-butyric acid methyl ester] showed a pEC50 of under 4.52. Same read-out and setting: as for `Cc1cccc(N2CCN(C(=O)COc3noc4nc(C)cc(C)c34)CC2C)c1` (configuration not stated) [2-[(4,6-dimethyl-[1,2]oxazolo[5,4-b]pyridin-3-yl)oxy]-1-[3-methyl-4-(3-methylphenyl)piperazin-1-yl]ethanone], the figure is under 4.52. On the same count and under the same terms, as for `CCN=c1scc(C)n1N=Cc1ccc(O)c(O)c1O`, the figure is 5.45; as for `Cc1cccc(N2CCN(C(=O)Cn3ccc4nc(C)cc(C)c4c3=O)CC2C)c1` (configuration not stated) [2,4-dimethyl-6-[2-[3-methyl-4-(3-methylphenyl)piperazin-1-yl]-2-oxidanylidene-ethyl]-1,6-naphthyridin-5-one], under 4.52; as for `Cc1cc(Cl)ccc1/N=c1/ssnc1Cl` [MLS000539990], 6.52. For the compound `O=c1c2ccccc2sn1-c1ccccc1` [2-phenyl-1,2-benzothiazol-3-one], the pEC50 was 6.87. Compared with the last compound, the pEC50 is 0.35 log units higher. Still for that read-out and setting: the result for `CN=c1scc(C)n1N=Cc1ccc(O)c(O)c1O` [(4E)-2,3-dihydroxy-4-[[(4-methyl-2-methylimino-1,3-thiazol-3-yl)amino]methylidene]cyclohexa-2,5-dien-1-one] reads 5.77.

Turning to `O=C(COc1ccccc1C(=O)NN=Cc1ccc(O)c(O)c1)NN=Cc1ccc(O)c(O)c1` [N''-[(Z)-(3-hydroxy-4-oxo-1-cyclohexa-2,5-dienylidene)methyl]-2-[2-[[(Z)-(3-hydroxy-4-oxo-1-cyclohexa-2,5-dienylidene)methyl]hydrazo]-2-oxoethoxy]benzohydrazide], the pEC50 was 6.79. The same measure, in the same setting: the result for `Cc1cc(C)c2c(=O)n(CC(=O)N3CCN(c4ccccc4)CC3)ccc2n1` [2,4-dimethyl-6-[2-oxidanylidene-2-(4-phenylpiperazin-1-yl)ethyl]-1,6-naphthyridin-5-one] reads under 4.52. In turn, `O=C1C(Cl)=C(N2CCCCC2)C(=O)C(Cl)=C1c1cnc(N2CCCCC2)s1` [MLS000550549] gave a negative logarithm of the EC50 (pEC50) of 6.57.

`Cc1[nH]n(-c2ccccc2)c(=S)c1/C=N/c1cccc([N+](=O)[O-])c1` [(4E)-5-methyl-4-[(3-nitroanilino)methylene]-2-phenyl-2-pyrazoline-3-thione] had a pEC50 of 4.96. Same read-out and setting: the result for `Nc1c(C(=O)NCC2CCCO2)sc2nc3c(c(-c4ccco4)c12)CC/C3=C/c1ccco1` (configuration not stated) [UNM-0000305796] reads under 4.52; that for `O=c1c2ccccc2sn1-c1ccc(S(=O)(=O)N2CCCC2)cc1` [2-(4-pyrrolidin-1-ylsulfonylphenyl)-1,2-benzothiazol-3-one], 6.49. Still for that read-out and setting: the result for `CCN(CC)S(=O)(=O)c1cccc(C(=O)NN=Cc2ccc(O)c(O)c2O)c1` reads 6.20.

For `Cc1cccc(N2CCN(C(=O)CN3CCc4nc(C)cc(C)c4C3=O)CC2C)c1` (configuration not stated) [KUC103675N], the pEC50 was under 4.52. In turn, `O=C(Cc1csc(N2CCOCC2)n1)NN=Cc1ccc(O)c(O)c1O` [SMR000369439] had a negative-log EC50 (pEC50) of 5.96. Take `CCOC(=O)c1sc(NC(=O)CSc2nnc(Cc3ccccc3)o2)c(C#N)c1C` [4-cyano-3-methyl-5-[[1-oxo-2-[[5-(phenylmethyl)-1,3,4-oxadiazol-2-yl]thio]ethyl]amino]-2-thiophenecarboxylic acid ethyl ester]: the pEC50 was 5.11. Consider `CC1(C)OC(=O)C(=Cc2ccc(-c3ccc(S(N)(=O)=O)cc3)o2)C(=O)O1` [SMR000273939], for which the pEC50 is under 4.52. For `COc1ccc(C2=CC(=O)C=CC2=O)cc1` [MLS001029846], the pEC50 is 6.24. Same read-out and setting: the result for `O=C(NCCCN1CCOCC1)c1sc2cc([N+](=O)[O-])ccc2c1Cl` [3-chloranyl-N-(3-morpholin-4-ylpropyl)-6-nitro-1-benzothiophene-2-carboxamide] reads 5.00.

These data come from BindingDB's records for doi:10.7270/Q2CF9NJZ (Nmmlsc, 2010).
